The values below come from patent publication US12559529B2, “NPY2 receptor agonists” (Boehringer Ingelheim International GmbH, priority 2019, dated 2026).

The pKi is −log10 of the Ki, conventionally taken in molar units.

pKi: −log10 of the molar value. *1 amine or outer side, *2 acyl side, *3 side chain or, on linkers, in order; H or OH if unused. Where a SMILES comes first, the peptide text is derived from it. Side-chain parts run from the residue outwards. The star is where a group is joined. C18 diacid = O=C(O)CCCCCCCCCCCCCCCCC(=O)*; γGlu = O=C(O)[C@H](CCC(=O)[*:2])N[*:1]; Isovaleryl = CC(C)CC(=O)*; AEEA = NCCOCCOCC(=O)O

The target of the assay is T1, Human Neuropeptide Y2 Receptor (Homo sapiens, UniProt P49146).
T1 construct: purchased CHEMICON HTS066M
T1 sequence (P49146 1-381): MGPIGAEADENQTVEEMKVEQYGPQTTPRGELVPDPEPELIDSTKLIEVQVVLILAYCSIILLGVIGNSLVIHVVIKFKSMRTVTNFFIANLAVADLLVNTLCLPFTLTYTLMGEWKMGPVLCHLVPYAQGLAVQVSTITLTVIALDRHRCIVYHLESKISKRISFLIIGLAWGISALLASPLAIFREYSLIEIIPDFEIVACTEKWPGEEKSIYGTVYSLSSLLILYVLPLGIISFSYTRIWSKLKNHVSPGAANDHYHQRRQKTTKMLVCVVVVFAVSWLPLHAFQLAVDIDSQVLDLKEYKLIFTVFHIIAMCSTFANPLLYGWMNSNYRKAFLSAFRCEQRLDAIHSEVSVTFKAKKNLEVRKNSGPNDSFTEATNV
Kind of assay: Radioligand binding competition assay (RLB). Conditions: Table 3; human 125I-PYY (1-36) 0.02 nM, Y2 receptor membranes; read-out: Ki. The method, boiled down: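 IC50 values come from nonlinear regression of sigmoidal dose-response curves of filter-bound radioactivity. Peptides competed with radioligand at human Y2 receptor membranes (0.5 μg protein/well) for 2 h at room temperature in pH 7.4 HEPES buffer containing Mg2+, Ca2+ and 0.2% ovalbumin.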
`CC[C@H](C)[C@H](NC(=O)[C@H](Cc1c[nH]c2ccccc12)NC(=O)[C@H](CC(N)=O)NC(=O)[C@H](Cc1ccc(O)cc1)NC(=O)[C@H](Cc1ccc(O)cc1)NC(=O)[C@H](Cc1c[nH]cn1)NC(=O)[C@H](CCCNC(=N)N)NC(=O)[C@H](CC(C)C)NC(=O)[C@H](CO)NC(=O)[C@@H](NC(=O)[C@H](Cc1ccc(O)cc1)NC(=O)[C@H](Cc1ccc(O)cc1)NC(=O)[C@H](CCCNC(=N)N)NC(=O)[C@H](CCC(N)=O)NC(=O)[C@H](CC(C)C)NC(=O)[C@H](CCC(=O)O)NC(=O)[C@H](CCC(=O)O)NC(=O)[C@@H]1CCCN1C(=O)[C@H](CO)NC(=O)[C@H](C)NC(=O)[C@H](CCC(=O)O)NC(=O)[C@H](CCC(=O)O)NC(=O)[C@H](CCC(=O)O)NC(=O)[C@@H]1CCCN1C(=O)[C@H](CCCCNC(=O)COCCOCCNC(=O)COCCOCCNC(=O)CC[C@H](NC(=O)CCCCCCCCCCCCCCCCC(=O)O)C(=O)O)NC(=O)[C@H](CCC(=O)O)NC(=O)[C@@H]1CCCN1C(=O)[C@H](C)NC(=O)CC(C)C)C(C)C)C(=O)N[C@H](C(=O)N[C@@H](CCCNC(=N)N)C(=O)N[C@@H](CCC(N)=O)C(=O)N[C@@H](CCCNC(=N)N)C(=O)N[C@@H](Cc1ccc(O)cc1)C(N)=O)[C@@H](C)O` [Compound 44, N{alpha-4}-(3-methylbutanoyl)-N{epsilon-7}-[2-(2-{2-[2-(2-{2-[(4S)-4-carboxy-4-(17-carboxyheptadecanamido)butanamido]ethoxy}ethoxy)acetamido]ethoxy}ethoxy)acetamido]-[4A,7K,9E,11E,18Q,22V,28Y,30W,31I]hPYY (4-36)]: the pKi is 8.35.
As to `CC(C)CC(=O)N[C@@H](C)C(=O)N1CCC[C@H]1C(=O)N[C@@H](CCC(=O)O)C(=O)N[C@@H](CCCCNC(=O)COCCOCCNC(=O)COCCOCCNC(=O)CC[C@H](NC(=O)CCCCCCCCCCCCCCCCC(=O)O)C(=O)O)C(=O)N1CCC[C@H]1C(=O)N1CCC[C@H]1C(=O)N[C@@H](CCC(=O)O)C(=O)N[C@@H](CC(=O)O)C(=O)N[C@@H](C)C(=O)N[C@H](C(=O)N1CCC[C@H]1C(=O)N[C@@H](CCC(=O)O)C(=O)N[C@@H](CCC(=O)O)C(=O)N[C@@H](CC(C)C)C(=O)N[C@@H](CCC(N)=O)C(=O)N[C@@H](CCCNC(=N)N)C(=O)N[C@@H](Cc1ccc(O)cc1)C(=O)N[C@@H](Cc1ccc(O)cc1)C(=O)N[C@H](C(=O)N[C@@H](CO)C(=O)N[C@@H](CC(C)C)C(=O)N[C@@H](CCCNC(=N)N)C(=O)N[C@@H](Cc1c[nH]cn1)C(=O)N[C@@H](Cc1ccc(O)cc1)C(=O)N[C@@H](Cc1ccc(O)cc1)C(=O)N[C@@H](CC(N)=O)C(=O)N[C@@H](Cc1c[nH]c2ccccc12)C(=O)N[C@@H](CC(C)C)C(=O)N[C@H](C(=O)N[C@@H](CCCNC(=N)N)C(=O)N[C@@H](CCC(N)=O)C(=O)N[C@@H](CCCNC(=N)N)C(=O)N[C@@H](Cc1ccc(O)cc1)C(N)=O)[C@@H](C)O)C(C)C)[C@@H](C)O` [Compound 26, N{alpha-4}-(3-methylbutanoyl)-N{epsilon-7}-[2-(2-{2-[2-(2-{2-[(4S)-4-carboxy-4-(17-carboxyheptadecanamido)butanamido]ethoxy}ethoxy)acetamido]ethoxy}ethoxy)acetamido]-[4A,7K,9P,13T,18Q,22V,28Y,30W,31L]hPYY (4-36)], the pKi was 9.11.
To `CC(C)CC(=O)N[C@@H](C)C(=O)N1CCC[C@H]1C(=O)N[C@@H](CCC(=O)O)C(=O)N[C@@H](CCCCNC(=O)COCCOCCNC(=O)COCCOCCNC(=O)CC[C@H](NC(=O)CCCCCCCCCCCCCCCCC(=O)O)C(=O)O)C(=O)N1CCC[C@H]1C(=O)N[C@@H](CCC(=O)O)C(=O)N[C@@H](CCC(=O)O)C(=O)N[C@@H](CCC(=O)O)C(=O)N[C@@H](C)C(=O)N[C@@H](CO)C(=O)N1CCC[C@H]1C(=O)N[C@@H](CCC(=O)O)C(=O)N[C@@H](CCC(=O)O)C(=O)N[C@H](C(=O)N[C@@H](CCC(N)=O)C(=O)N[C@@H](CCCNC(=N)N)C(=O)N[C@@H](Cc1ccc(O)cc1)C(=O)N[C@@H](Cc1ccc(O)cc1)C(=O)N[C@H](C(=O)N[C@@H](CO)C(=O)N[C@@H](CC(C)C)C(=O)N[C@@H](CCCNC(=N)N)C(=O)N[C@@H](Cc1c[nH]cn1)C(=O)N[C@@H](Cc1ccc(O)cc1)C(=O)N[C@@H](Cc1ccc(O)cc1)C(=O)N[C@@H](CC(N)=O)C(=O)N[C@@H](Cc1c[nH]c2ccccc12)C(=O)N[C@@H](CC(C)C)C(=O)N[C@H](C(=O)N[C@@H](CCCNC(=N)N)C(=O)N[C@@H](CCC(N)=O)C(=O)N[C@@H](CCCNC(=N)N)C(=O)N[C@@H](Cc1ccc(O)cc1)C(N)=O)[C@@H](C)O)C(C)C)C(C)C` [Compound 204, N{alpha-4}-(3-methylbutanoyl)-N{epsilon-7}-[2-(2-{2-[2-(2-{2-[(4S)-4-carboxy-4-(17-carboxyheptadecanamido)butanamido]ethoxy}ethoxy)acetamido]ethoxy}ethoxy)acetamido]-[4A,7K,9E,11E,17V,18Q,22V,28Y,30W,31L]hPYY (4-36)] (Isovaleryl-APEK([AEEA-AEEA-γGlu-C18 diacid])PEEEASPEEVQRYYVSLRHYYNWLTRQRY-NH2) belongs 8.47; to `CC(C)CC(=O)N[C@@H](C)C(=O)N1CCC[C@H]1C(=O)N[C@@H](CCC(=O)O)C(=O)N[C@@H](CCCCNC(=O)COCCOCCNC(=O)COCCOCCNC(=O)CC[C@H](NC(=O)CCCCCCCCCCCCCCCCC(=O)O)C(=O)O)C(=O)N1CCC[C@H]1C(=O)N[C@@H](CCC(=O)O)C(=O)N[C@@H](C)C(=O)N[C@@H](CC(=O)O)C(=O)N[C@@H](C)C(=O)N[C@@H](CO)C(=O)N[C@@H](C)C(=O)N[C@@H](CCC(=O)O)C(=O)N[C@@H](CCC(=O)O)C(=O)N[C@@H](CC(C)C)C(=O)N[C@@H](CCC(N)=O)C(=O)N[C@@H](CCCNC(=N)N)C(=O)N[C@@H](Cc1ccc(O)cc1)C(=O)N[C@@H](Cc1ccc(O)cc1)C(=O)N[C@H](C(=O)N[C@@H](CO)C(=O)N[C@@H](CC(C)C)C(=O)N[C@@H](CCCNC(=N)N)C(=O)N[C@@H](Cc1c[nH]cn1)C(=O)N[C@@H](Cc1ccc(O)cc1)C(=O)N[C@@H](Cc1ccc(O)cc1)C(=O)N[C@@H](CC(N)=O)C(=O)N[C@@H](Cc1c[nH]c2ccccc12)C(=O)N[C@@H](CC(C)C)C(=O)N[C@H](C(=O)N[C@@H](CCCNC(=N)N)C(=O)N[C@@H](CCC(N)=O)C(=O)N[C@@H](CCCNC(=N)N)C(=O)N[C@@H](Cc1ccc(O)cc1)C(N)=O)[C@@H](C)O)C(C)C` [Compound 242, N{alpha-4}-(3-methylbutanoyl)-N{epsilon-7}-[2-(2-{2-[2-(2-{2-[(4S)-4-carboxy-4-(17-carboxyheptadecanamido)butanamido]ethoxy}ethoxy)acetamido]ethoxy}ethoxy)acetamido]-[4A,7K,9E,10A,14A,18Q,22V,28Y,30W,31L]hPYY (4-36)], 9.09; to `CC[C@H](C)[C@H](NC(=O)[C@H](CCC(=O)O)NC(=O)[C@H](CCC(=O)O)NC(=O)[C@@H]1CCCN1C(=O)[C@H](CO)NC(=O)[C@H](C)NC(=O)[C@H](CC(=O)O)NC(=O)[C@H](CCC(=O)O)NC(=O)[C@@H]1CCCN1C(=O)[C@@H]1CCCN1C(=O)[C@H](CCCCNC(=O)COCCOCCNC(=O)COCCOCCNC(=O)CC[C@H](NC(=O)CCCCCCCCCCCCCCCCC(=O)O)C(=O)O)NC(=O)[C@H](CCC(=O)O)NC(=O)[C@@H]1CCCN1C(=O)[C@H](C)NC(=O)CC(C)C)C(=O)N[C@@H](CCC(N)=O)C(=O)N[C@@H](CCCNC(=N)N)C(=O)N[C@@H](Cc1ccc(O)cc1)C(=O)N[C@@H](Cc1ccc(O)cc1)C(=O)N[C@H](C(=O)N[C@@H](CO)C(=O)N[C@@H](CC(C)C)C(=O)N[C@@H](CCCNC(=N)N)C(=O)N[C@@H](Cc1c[nH]cn1)C(=O)N[C@@H](Cc1ccc(O)cc1)C(=O)N[C@@H](Cc1ccc(O)cc1)C(=O)N[C@@H](CC(N)=O)C(=O)N[C@@H](Cc1c[nH]c2ccccc12)C(=O)N[C@@H](CC(C)C)C(=O)N[C@H](C(=O)N[C@@H](CCCNC(=N)N)C(=O)N[C@@H](CCC(N)=O)C(=O)N[C@@H](CCCNC(=N)N)C(=O)N[C@@H](Cc1ccc(O)cc1)C(N)=O)[C@@H](C)O)C(C)C` [Compound 61, N{alpha-4}-(3-methylbutanoyl)-N{epsilon-7}-[2-(2-{2-[2-(2-{2-[(4S)-4-carboxy-4-(17-carboxyheptadecanamido)butanamido]ethoxy}ethoxy)acetamido]ethoxy}ethoxy)acetamido]-[4A,7K,9P,17I,18Q,22V,28Y,30W,31L]hPYY (4-36)], 9.40.
